According to publication PMC7176092, “Development of the first in vivo GPR17 ligand through an iterative drug discovery pipeline: A novel disease-modifying strategy for multiple sclerosis” (PLoS ONE, 2020):
Read-outs that look alike come from different tables or passages of the source.

Experiments:
ADR1A = target: T1, ADR1A (Homo sapiens, UniProt P35348); experiment: Binding assay ADR1A; conditions: 100 nM
T1 construct: Eurofins Cerep (external service)
T1 sequence (P35348 1-466): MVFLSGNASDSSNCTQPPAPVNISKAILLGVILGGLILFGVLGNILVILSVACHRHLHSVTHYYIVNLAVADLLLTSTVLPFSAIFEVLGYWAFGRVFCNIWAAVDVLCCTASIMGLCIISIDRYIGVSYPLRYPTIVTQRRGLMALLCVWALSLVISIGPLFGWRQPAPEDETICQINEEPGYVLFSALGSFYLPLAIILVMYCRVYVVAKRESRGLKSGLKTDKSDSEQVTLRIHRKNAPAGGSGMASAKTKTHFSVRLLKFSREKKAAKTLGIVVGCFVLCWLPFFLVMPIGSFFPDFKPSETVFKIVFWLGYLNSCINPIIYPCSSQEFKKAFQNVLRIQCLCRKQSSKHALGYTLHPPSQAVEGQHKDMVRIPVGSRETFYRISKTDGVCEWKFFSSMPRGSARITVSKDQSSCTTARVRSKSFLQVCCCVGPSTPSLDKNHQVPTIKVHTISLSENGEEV

CCR2 = target: T2, CCR2 (Homo sapiens, UniProt P41597); experiment: Binding assay CCR2; conditions: 100 nM
T2 construct: Eurofins Cerep (external service)
T2 sequence (P41597 whole entry): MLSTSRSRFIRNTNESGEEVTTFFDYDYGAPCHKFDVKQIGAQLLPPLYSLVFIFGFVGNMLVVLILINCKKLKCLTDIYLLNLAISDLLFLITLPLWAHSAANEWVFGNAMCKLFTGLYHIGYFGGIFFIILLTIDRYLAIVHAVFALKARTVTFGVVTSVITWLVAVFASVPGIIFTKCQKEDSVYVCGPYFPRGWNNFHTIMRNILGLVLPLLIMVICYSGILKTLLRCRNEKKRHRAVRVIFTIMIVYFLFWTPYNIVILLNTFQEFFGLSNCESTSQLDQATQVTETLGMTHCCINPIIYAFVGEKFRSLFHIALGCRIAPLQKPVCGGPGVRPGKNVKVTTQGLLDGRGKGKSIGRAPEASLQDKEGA

M2 = target: T3, M2 (Homo sapiens, UniProt P08172); experiment: Binding assay M2; conditions: 100 nM
T3 construct: Eurofins Cerep (external service)
T3 sequence (P08172 1-466): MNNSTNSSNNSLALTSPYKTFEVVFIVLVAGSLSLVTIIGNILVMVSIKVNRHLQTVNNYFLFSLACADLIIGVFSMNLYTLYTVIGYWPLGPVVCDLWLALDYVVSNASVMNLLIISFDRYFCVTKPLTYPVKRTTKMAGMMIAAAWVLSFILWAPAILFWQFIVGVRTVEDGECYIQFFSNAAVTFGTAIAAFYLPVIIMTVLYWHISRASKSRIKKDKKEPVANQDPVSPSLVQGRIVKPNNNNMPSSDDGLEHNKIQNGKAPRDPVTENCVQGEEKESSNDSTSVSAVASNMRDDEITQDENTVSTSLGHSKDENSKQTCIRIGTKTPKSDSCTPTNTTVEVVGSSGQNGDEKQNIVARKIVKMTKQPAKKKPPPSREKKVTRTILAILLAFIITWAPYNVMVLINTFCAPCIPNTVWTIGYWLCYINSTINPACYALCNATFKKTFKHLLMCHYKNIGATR

M4 = target: T4, M4 (Homo sapiens, UniProt P08173); experiment: Binding assay M4; conditions: 100 nM
T4 construct: Eurofins Cerep (external service)
T4 sequence (P08173 1-479): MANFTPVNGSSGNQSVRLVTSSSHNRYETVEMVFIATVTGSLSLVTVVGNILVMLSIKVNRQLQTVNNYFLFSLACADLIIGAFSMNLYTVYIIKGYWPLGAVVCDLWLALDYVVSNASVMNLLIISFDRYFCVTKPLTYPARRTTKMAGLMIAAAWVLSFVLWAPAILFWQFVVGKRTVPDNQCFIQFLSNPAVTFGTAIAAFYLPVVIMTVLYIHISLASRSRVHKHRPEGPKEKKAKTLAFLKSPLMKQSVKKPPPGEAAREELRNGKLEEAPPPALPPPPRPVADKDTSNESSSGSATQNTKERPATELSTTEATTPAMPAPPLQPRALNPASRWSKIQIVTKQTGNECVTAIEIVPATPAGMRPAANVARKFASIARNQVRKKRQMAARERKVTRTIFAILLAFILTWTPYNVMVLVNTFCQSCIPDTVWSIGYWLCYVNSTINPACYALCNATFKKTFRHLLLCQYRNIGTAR

M5 = target: T5, M5 (Homo sapiens, UniProt P08912); experiment: Binding assay M5; conditions: 100 nM
T5 construct: Eurofins Cerep (external service)
T5 sequence (P08912 1-532): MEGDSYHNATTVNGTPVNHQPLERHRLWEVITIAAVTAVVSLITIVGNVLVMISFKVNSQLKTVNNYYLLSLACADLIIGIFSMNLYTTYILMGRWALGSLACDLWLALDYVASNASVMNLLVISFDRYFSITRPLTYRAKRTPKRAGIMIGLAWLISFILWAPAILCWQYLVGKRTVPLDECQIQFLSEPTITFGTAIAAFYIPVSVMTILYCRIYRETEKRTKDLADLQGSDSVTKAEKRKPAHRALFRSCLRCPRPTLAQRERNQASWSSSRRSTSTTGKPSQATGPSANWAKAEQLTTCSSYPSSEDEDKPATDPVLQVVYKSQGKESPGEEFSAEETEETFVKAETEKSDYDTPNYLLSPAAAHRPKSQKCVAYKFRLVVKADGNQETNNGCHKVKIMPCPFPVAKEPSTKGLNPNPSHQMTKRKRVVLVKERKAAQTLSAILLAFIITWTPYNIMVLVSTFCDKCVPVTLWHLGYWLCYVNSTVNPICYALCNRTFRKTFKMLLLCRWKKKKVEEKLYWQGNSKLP

CXCR1 = target: T6, CXCR1 (Homo sapiens, UniProt P25024); experiment: Cellular functional assay CXCR1
T6 sequence (P25024 1-350): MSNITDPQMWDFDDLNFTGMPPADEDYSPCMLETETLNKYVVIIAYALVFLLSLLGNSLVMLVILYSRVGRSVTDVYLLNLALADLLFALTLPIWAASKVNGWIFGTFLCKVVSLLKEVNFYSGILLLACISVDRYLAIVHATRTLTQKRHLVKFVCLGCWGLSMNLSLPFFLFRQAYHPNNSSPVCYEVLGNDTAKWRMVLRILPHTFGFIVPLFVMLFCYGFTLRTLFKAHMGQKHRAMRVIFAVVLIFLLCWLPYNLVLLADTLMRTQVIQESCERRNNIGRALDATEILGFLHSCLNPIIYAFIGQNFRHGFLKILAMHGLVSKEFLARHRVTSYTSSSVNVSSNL

[1] = mean of 2, read-out: % Of control specific binding, Mean
[2] = single replicates 1 and 2, 0.1 µM
[3] = single replicates 1 and 2, read-out: % Of control specific binding
[4] = read-out: % Inhibition of control specific binding

remaining activity at 0.1 µM (ADR1A; [1]): 112%
% Of control specific binding (ADR1A; [2]): 108.1%
remaining activity at 0.1 µM (ADR1A; [3]): 117%
remaining activity at 0.1 µM (CCR2; [1]): 88.4%
inhibition at 0.1 µM (CCR2; [4]): 12%
% Of control specific binding (CCR2; [2]): 88.9%
remaining activity at 0.1 µM (CCR2; [3]): 88%
remaining activity at 0.1 µM (M2; [1]): 108%
inhibition at 0.1 µM (M2; [4]): -8%
% Of control specific binding (M2; [2]): 111.1%
remaining activity at 0.1 µM (M2; [3]): 104%
remaining activity at 0.1 µM (M4; [1]): 95.4%
inhibition at 0.1 µM (M4; [4]): 5%
% Of control specific binding (M4; [2]): 95.1%
remaining activity at 0.1 µM (M4; [3]): 95.7%
remaining activity at 0.1 µM (M5; [1]): 97.4%
inhibition at 0.1 µM (M5; [4]): 3%
% Of control specific binding (M5; [2]): 105.1%
remaining activity at 0.1 µM (M5; [3]): 89.7%
Agonist Response (% of Control) (CXCR1; antagonist effect, 100 nM, single replicates 1st and 2nd, 0.1 µM): 105.5%
inhibition at 0.1 µM (CXCR1; read-out: % Inhibition of control agonist response): -0.8%
activity at 0.1 µM (CXCR1; read-out: Agonist Response (% of Control), Mean, antagonist effect, 100 nM, mean of 2): 96.3%
activity at 0.1 µM (CXCR1; read-out: Agonist Response (% of Control), antagonist effect, 100 nM, single replicates 1st and 2nd): 87.1%
Structure (SMILES): Cc1ccc(-c2nnc(SCC(=O)Nc3nccs3)[nH]2)cc1 [Compound 9]
